{"source": "patent US6903052B2", "about": "“Nematicidal compositions and methods” (Divergence, Inc., priority 2002, dated 2005)", "key": {"C. elegans [1]": {"system": "C. elegans", "assay": "Nematicidal activity of emulsions made with cyclodextrins (replacing isopropanol) against C. elegans", "assay_type": "cell-based, Caenorhabditis elegans", "conditions": "igepal CO 630 / 2-Hydroxypropyl-β-Cyclodextrin emulsion", "from_the_text": "In an effort to increase the bioavailability of fatty acid methyl esters in emulsions, isopropanol was replaced with one of two cyclodextrins (Methyl-β-Cyclodextrin or 2-Hydroxypropyl-β-Cyclodextrin)."}, "[2]": {"system": "free-living, animal parasitic, and plant parasitic nematodes", "assay": "Nematicidal activity across the spectrum of nematodes, summary statement (Example 8)", "assay_type": "cell-based", "conditions": "concentrations of 0.1% and 0.01%", "experimental": "(§1) Briefly, the indicated fatty acid emulsions were added and rapidly mixed by swirling. Nematode viability was scored by visual observation and motility assays 24 hours following addition of emulsions (48 hours for plant parasitic nematodes Meloidogyne and Heterodera species). The fatty acid emulsions tested were methyl esters of nonanoic (pelargonic) acid, ricinelaidic acid, ricinoleic acid, vernolic acid, linoleic acid, and oleic acid. […] Results shown are mean % values obtained from multiple independent experiments\n(§2) The Caenorhabiditis elegans were mixed stage populations. Similar effects seen on several other free-living nematode species. The Parastrongyloides trichosuri (parasite of Australian bushtail possum) were dauer-like infective 3rd stage larva. Similar effects are also seen against free-living stages. The Meloidogyne incognita and Meloidogyne javanica (root knot nematode) were 2nd stage juveniles (dauer-like infective stage). The Heterodera glycines (soybean cyst nematode) were 2nd stage juveniles (dauer-like infective stage). Finally, the Pratylenchus scribneri (corn lesion nematode) were mixed stage populations."}, "C. elegans [3]": {"system": "C. elegans", "assay": "Nematicidal activity of fatty acid methyl ester emulsions, spectrum (Example 8)", "assay_type": "cell-based, Caenorhabditis elegans", "conditions": "C. elegans mixed stage", "experimental": "as §1, §2"}, "P. scribneri": {"system": "P. scribneri", "assay": "Nematicidal activity of fatty acid methyl ester emulsions, spectrum (Example 8)", "assay_type": "cell-based, Pratylenchus scribneri", "conditions": "P. scribneri mixed stage", "experimental": "as §1, §2"}, "P. trichosuri": {"system": "P. trichosuri", "assay": "Nematicidal activity of fatty acid methyl ester emulsions, spectrum (Example 8)", "assay_type": "cell-based, Parastrongyloides trichosuri", "conditions": "P. trichosuri infective 3rd stage larva", "experimental": "as §1, §2"}, "[4]": {"system": "everted hamster jejunal and ileal segments", "conditions": "Gaginella et al. (1975); cited from earlier work"}, "[5]": {"system": "root knot nematodes (Meloidogyne spp.)", "assay": "Nematicidal activity against root knot nematodes, summary statement", "assay_type": "cell-based", "conditions": "concentration of 0.1%", "experimental": "(§3) Meloidogyne incognita and javanica were prepared from tomato roots. The roots were bleached and the debris was separated from the J2 larvae and eggs by filtration followed by sucrose density gradient centrifugation. Eggs were hatched over 4 days at 15° C. and the J2 larvae were collected by passage though a filter, followed by centrifugation.\n(§4) Nematodes and emulsions were incubated with shaking at room temperature for 48 hours. The contents of each well were transferred to a small spot on individual NGM plates lacking bacteria. About 24 hours after the transfer to plates, worms on and off the inoculation spot were counted as not viable or viable, respectively. Worms were considered viable if they had crawled away from the inoculation spot, or if they were moving. Worms were considered non-viable if they remained at the inoculation spot."}, "M. javanica [6]": {"system": "M. javanica", "assay": "Nematicidal activity of fatty acid methyl ester emulsions, spectrum (Example 8)", "assay_type": "cell-based, Meloidogyne javanica", "conditions": "M. javanica 2nd stage juveniles, scored at 48 hours", "experimental": "as §1, §2"}, "M. incognita [7]": {"system": "M. incognita", "assay": "Nematicidal activity of fatty acid methyl ester emulsions against root knot nematode J2 larvae (Example 6)", "assay_type": "cell-based, Meloidogyne incognita", "conditions": "0.1% emulsion; 48 hours incubation, counted about 24 hours after transfer to plates", "experimental": "(§5) Fatty acid methyl ester emulsions were prepared following the teachings of Kim et al (U.S. Pat. No. 5,698,592). Briefly, 1 ml 1% stock solution emulsions were prepared by mixing 10 μl of fatty acid methyl ester with 20 μl of the surfactant Igepal CO 630 in a 1.5 ml eppendorf tube. After careful mixing of fatty acid and Igepal CO 630, 850 μl of ddH20 was added and mixed by gentle pipetting until a homogeneous solution was obtained. Finally, 120 μl of pure isopropanol was added and mixed by gentle pipetting. This stock solution was then used to produce various fatty acid methyl ester dilution emulsions in 24-well plate assays.\nas §3, §4"}, "M. incognita [8]": {"system": "M. incognita", "assay": "Nematicidal activity of fatty acid methyl ester emulsions, spectrum (Example 8)", "assay_type": "cell-based, Meloidogyne incognita", "conditions": "M. incognita 2nd stage juveniles, scored at 48 hours", "experimental": "as §1, §2"}, "C. elegans [9]": {"system": "C. elegans", "assay": "Nematicidal activity of emulsions made with Tween-20 (replacing Igepal CO 630) against C. elegans", "assay_type": "cell-based, Caenorhabditis elegans", "conditions": "Tween-20 emulsion", "experimental": "Some nematodes assayed as described in Example 9 lacked tolerance to emulsions made with the surfactant Igepal CO 630. For this reason some assays were repeated with Tween-20-based emulsions.\nas §5, with “Briefly,” for “Fatty acid methyl ester emulsions were prepared following the teachings of Kim et al (U.S. Pat. No. 5,698,592). Briefly,”, “Tween-20” for “Igepal CO 630”, “Tween-20,” for “Igepal CO 630,”"}, "C. elegans [10]": {"system": "C. elegans", "assay": "Nematicidal activity of single fatty acid methyl ester emulsions against Caenorhabditis elegans (Example 4)", "assay_type": "cell-based", "experimental": "Mixed stage Caenorhabditis elegans were washed off plates seeded with OP50 bacteria using M9 solution. 250 μl of the M9 solution, which contained about 50 worms, was pipetted into each well of a 24-well plate.\nas §5\nTo each well, fatty acid emulsions or control emulsions were added and rapidly mixed by swirling. Nematode viability was scored by visual observation and motility assays at various time points 24 hours following addition of emulsions or controls. The fatty acid emulsions tested were methyl esters of nonanoic (pelargonic) acid, ricinoleic acid, vernolic acid, linoleic acid, oleic acid, and control emulsions lacking fatty acids."}, "M. javanica [11]": {"system": "M. javanica", "assay": "Nematicidal activity of fatty acid methyl ester emulsions against root knot nematode J2 larvae (Example 6)", "assay_type": "cell-based, Meloidogyne javanica", "conditions": "0.1% emulsion; 48 hours incubation, counted about 24 hours after transfer to plates", "experimental": "as §5, §3, §4"}}}
{"smiles": "CCCCCCC(O)C/C=C\\CCCCCCCC(=O)OC", "note": "(stereo not drawn) [Ricinoleic Acid (C18-methyl ester), 12-hydroxy-cis-9-octadecenoic acid methyl ester]", "values": [{"measurement": "% Worm Death (24 hr)", "setting": "C. elegans [1]; 0.001% solution", "value": "˜50%"}, {"measurement": "% Worm Death (24 hr)", "setting": "C. elegans [1]; 0.01% solution", "value": ">80", "unit": "%"}, {"measurement": "% Worm Death (24 hr)", "setting": "C. elegans [1]; 0.1% solution", "value": ">95", "unit": "%"}, {"measurement": "Nematicidal activity (in words)", "setting": "[2]", "value": "strongly nematicidal"}, {"measurement": "% Worm Death (24 hr)", "setting": "C. elegans [3]; 0.001% solution", "value": 30, "unit": "%"}, {"measurement": "% Worm Death (24 hr)", "setting": "C. elegans [3]; 0.01% solution", "value": 80, "unit": "%"}, {"measurement": "% Worm Death (24 hr)", "setting": "C. elegans [3]; 0.1% solution", "value": 100, "unit": "%"}, {"measurement": "% Worm Death (24 hr)", "setting": "P. scribneri; 0.01% solution", "value": "<20", "unit": "%"}, {"measurement": "% Worm Death (24 hr)", "setting": "P. scribneri; 0.1% solution", "value": "<20", "unit": "%"}, {"measurement": "% Worm Death (24 hr)", "setting": "P. trichosuri; 0.01% solution", "value": "˜60%"}, {"measurement": "% Worm Death (24 hr)", "setting": "P. trichosuri; 0.1% solution", "value": "˜50%"}, {"measurement": "Effect on water (and electrolyte) absorption", "setting": "[4]", "value": "ineffective at suppressing water absorption"}, {"measurement": "Nematicidal activity (in words)", "setting": "[5]", "value": "significant nematicidal activity"}, {"measurement": "% Worm Death (48 hr)", "setting": "M. javanica [6]; 0.01% solution", "value": 5, "unit": "%"}, {"measurement": "% Worm Death (48 hr)", "setting": "M. javanica [6]; 0.1% solution", "value": 60, "unit": "%"}, {"measurement": "M. incognita (% not viable)", "setting": "M. incognita [7]", "value": 95, "unit": "%"}, {"measurement": "% Worm Death (24 hr)", "setting": "M. incognita [8]; 0.01% solution", "value": 83, "unit": "%"}, {"measurement": "% Worm Death (24 hr)", "setting": "M. incognita [8]; 0.1% solution", "value": 95, "unit": "%"}, {"measurement": "% Worm Death (24 hr)", "setting": "C. elegans [9]; 0.001% solution", "value": 40, "unit": "%"}, {"measurement": "% Worm Death (24 hr)", "setting": "C. elegans [9]; 0.01% solution", "value": 100, "unit": "%"}, {"measurement": "% Worm Death (24 hr)", "setting": "C. elegans [9]; 0.1% solution", "value": 100, "unit": "%"}, {"measurement": "Percentage of Worm Death", "setting": "C. elegans [10]; 0.003% emulsion, 1 hr", "value": 60, "unit": "%"}, {"measurement": "Percentage of Worm Death", "setting": "C. elegans [10]; 0.003% emulsion, 6 hr", "value": 60, "unit": "%"}, {"measurement": "Percentage of Worm Death", "setting": "C. elegans [10]; 0.003% emulsion, 24 hr", "value": 60, "unit": "%"}, {"measurement": "Percentage of Worm Death", "setting": "C. elegans [10]; 0.1% emulsion, 1 hr", "value": 90, "unit": "%"}, {"measurement": "Percentage of Worm Death", "setting": "C. elegans [10]; 0.1% emulsion, 6 hr", "value": 90, "unit": "%"}, {"measurement": "Percentage of Worm Death", "setting": "C. elegans [10]; 0.1% emulsion, 24 hr", "value": 90, "unit": "%"}, {"measurement": "Nematicidal activity (in words)", "setting": "C. elegans [10]; concentration of 0.1%", "value": "strongly nematicidal"}, {"measurement": "Time before strong killing effects are apparent", "setting": "C. elegans [10]; emulsion, C. elegans", "value": "up to 30 minutes"}, {"measurement": "M. javanica (% not viable)", "setting": "M. javanica [11]", "value": 60, "unit": "%"}]}
